Assay results as given in patent US9790207B2, “Pan-genomic inhibitors of NS5A protein encoded by HCV, pharmaceutical compositions, intermediates for inhibitor synthesis, and their synthesis and application methods” (priority 2015, dated 2017).
Where a name gives a salt, the structure may show the parent alone. Read-outs that look alike come from different tables or passages of the source.

How the values were obtained:
HCV gT5a replicon = test: HCV replicon assay, gT5a; format: cell-based, Hepatitis C virus (HCV); settings: Hepatitis C virus, GT5A, Huh-7, read-out: gT5a, EC50 (pM) mean
Procedure: (§1) The HCV replicon assay was used to determine the antiviral activity of compounds of general formula 2 (test compounds). The test cell line used in the HCV Replicon Assay was the human hepatoma cell line Huh7 incorporating the HCV replicons synthesized by an outside vendor.
(§2) 96-well plates were seeded with cells at a density of 7.5×10^3 cells per well in 50 μl of assay media. The compound stock solution was made up freshly in an assay medium (DMEM 1×, Cellgro; cat. #10-013-CV) as a 2× stock. A total of 11 serial 3-fold dilutions of test compounds were prepared from the 2× stock in the assay media ranging from 20 nM-0.2 pM final concentrations. At least 4 hours after seeding the cells, compound treatment was initiated by adding 50 μl of compound dilution to the plates. The final concentrations of compound therefore ranged from 10 nM to 0.1 pM when diluted 1:1 in culture media. The final DMSO concentration was 0.5%. Cells and inhibitors were incubated for 3 days at 37° C./5% CO2. The media was removed from the plates by gentle tapping. The cells were fixed with 100 μl 1:1 acetone:methanol for 1 minute, washed three times with PBS buffer, and then blocked with 150 μl/well 10% Fetal Bovine Serum (FBS) in PBS for 1 hour at room temperature. The cells were then washed three times with PBS buffer and incubated with 100 μl/well anti-hepatitis C core mAb (Affinity BioReagents; cat. # MA1-080, 1 mg/ml stock diluted 1:4,000 in 10% FBS-PBS) for 2 hours at 37° C. Then, the cells were washed three times with PBS and incubated with 100 μl/well HRP-Goat Anti-Mouse antibody (diluted 1:3.500 in 10% FBS-PBS) for 1 hour at 37° C. The cells were then washed three times with PBS and developed with an OPD solution, 100 μl/well (1 OPD tablet+12 ml citrate/phosphate buffer+5 μl 30% H2O2 per plate), for 30 minutes in the dark at room temperature. The reaction was stopped with 2N H2SO4 (100 μl/well), and the absorbance was measured at A490 X on a Victor^3 V 1420 multilabel counter (Perkin Elmer).

HCV gT1a replicon = test: HCV replicon assay, gT1a; format: cell-based, Hepatitis C virus (HCV); settings: Hepatitis C virus, GT1A, Huh-7; Huh7 replicon cells; mean
Procedure: as §1, §2

HCV gT4a replicon = test: HCV replicon assay, gT4a; format: cell-based, Hepatitis C virus (HCV); settings: Hepatitis C virus, GT4A, Huh-7, read-out: gT4a, EC50 (pM) mean
Procedure: as §1, §2

HCV gT2a replicon = test: HCV replicon assay, gT2a; format: cell-based, Hepatitis C virus (HCV); settings: Hepatitis C virus, GT2A, Huh-7; Huh7 replicon cells; mean
Procedure: as §1, §2

HCV gT1b replicon = test: HCV replicon assay, gT1b; format: cell-based, Hepatitis C virus (HCV); settings: Hepatitis C virus, GT1B, Huh-7, Huh7 replicon cells, mean value
Procedure: as §1, §2

[1] = Cytotoxicity, cell viability by ATPLite Kit; format: cell-based, human; settings: human, Huh7 cells (human hepatoma cell line), 10% FBS, maximal inhibition, read-out: Cytotox gT1b 10% FBS max. inh.
Procedure: The cytotoxicity of the test compounds was studied in parallel using the same cell line, Huh7. Cell viability was determined using the ATPLite Kit (Perkin-Elmer, Boston, USA), according to manufacturer's instructions. 96-well black/transparent bottom plates were seeded with cells at a density of 7.5×10^3 cells per well in 50 μl medium. After 18 hours, compound treatment was initiated by adding 50 μl of compound dilution into the plates. Each compound dilution was tested in triplicates. The cells and inhibitors were then incubated for 96 hours at 37° C./5% CO2. The plates were washed twice with PBS (0.2 ml/well), and then lysed by adding lysis buffer, 0.05 ml/well (all reagents were included with the ATPLite Kit). After rocking for 5 min on a rocking platform, substrate buffer was added (0.05 ml/well). After additional 5-min incubation, the plates were kept in dark for 10 min, and the luminescence was read using TopCount NXT (Packard, Perkin Elmer). CC50 values for all test compounds were determined using XLfit 4.1 software (Table 2).

HCV gT3a replicon = test: HCV replicon assay, gT3a; format: cell-based, Hepatitis C virus (HCV)
Procedure: as §1, §2

[2] = 10% FBS, read-out: gT1b 10% FBS, EC50 (pM) mean
[3] = 40% NHS, read-out: gT1b 40% NHS, EC50 (pM) mean
[4] = Hepatitis C virus, GT3A, Huh-7, Huh7 replicon cells, mean, read-out: gT3a, EC50 (pM) mean

Structure (SMILES) | EC50 (HCV gT5a replicon) [pM] | EC50 (HCV gT1a replicon) [pM] | EC50 (HCV gT4a replicon) [pM] | EC50 (HCV gT2a replicon) [pM] | EC50 (HCV gT1b replicon; [2]) [pM] | EC50 (HCV gT1b replicon; [3]) [pM] | inhibition at 96 h [1] [%] | EC50 (HCV gT3a replicon; [4]) [pM] | EC50 (HCV gT3a replicon; Hepatitis C virus, GT3A, Huh-7, read-out: gT3a, EC50 (pM) mean, Huh7 replicon cells) [pM] | EC50 (HCV gT3a replicon; Huh7 replicon cells, mean, dihydrochloride, read-out: gT3a, EC50 (pM) mean) [pM]
COC(=O)N[C@H](C(=O)N1CCC[C@H]1c1ncc(-c2ccc(-c3ccc(-c4cnc([C@@H]5CCCN5C(=O)[C@H](NC(=O)OC)c5ccccc5)[nH]4)cc3)c(Sc3ccccc3)c2)[nH]1)C(C)C [2(24)•2HCl, ((S)-1-{(S)-2-[5-(4′-{2-[(S)-1-((R)-2-Methoxycarbonylamino-2-phenyl-acetyl)-pyrrolidin-2-yl]-3H-imidazol-4-yl}-2-phenylsulfanyl-biphenyl-4-yl)-1H-imidazol-2-yl]-pyrrolidine-1-carbonyl}-2-methyl-propyl)-carbamic acid methyl ester dihydrochloride] | 21.6 | 557 | 8.3 | 4 | 1.33 | 8.02 | 42 | 28.5 |  | 
COC(=O)N[C@H](C(=O)N1CCC[C@H]1c1ncc(-c2ccc(-c3ccc(-c4cnc([C@@H]5CCCN5C(=O)[C@H](NC(=O)OC)c5ccccc5)[nH]4)cc3)c(-c3ccccc3)c2)[nH]1)C(C)C [2(22)•2HCl, ((S)-1-{(S)-2-[5-(4-{2-[(S)-1-((R)-2-Methoxycarbonylamino-2-phenyl-acetyl)-pyrrolidin-2-yl]-3H-imidazol-4-yl}-[1,1′;2′,1″]terphenyl-4′-yl)-1H-imidazol-2-yl]-pyrrolidine-1-carbonyl}-2-methyl-propyl)-carbamic acid methyl ester dihydrochloride] | 31.3 | 117 | 9.4 | 3.9 | 2.58 | 38.8 | 30 | 16.6 |  | 
COC(=O)N[C@H](C(=O)N1CCC[C@H]1c1ncc(-c2ccc(-c3ccc(-c4cnc([C@@H]5CCCN5C(=O)[C@H](NC(=O)OC)c5ccccc5)[nH]4)cc3)c(Oc3ccccc3)c2)[nH]1)C(C)C [2(23)•2HCl, ((S)-1-{(S)-2-[5-(4′-{2-[(S)-1-((R)-2-Methoxycarbonylamino-2-phenyl-acetyl)-pyrrolidin-2-yl]-3H-imidazol-4-yl}-2-phenoxy-biphenyl-4-yl)-1H-imidazol-2-yl]-pyrrolidine-1-carbonyl}-2-methyl-propyl)-carbamic acid methyl ester dihydrochloride] | 13.6 | 154 | 5.4 | 4.1 | 2.1 | 15.7 | 27 | 10.3 |  | 
COC(=O)N[C@H](C(=O)N1CCC[C@H]1c1ncc(-c2cc(F)c(-c3ccc(-c4cnc([C@@H]5CCCN5C(=O)[C@H](NC(=O)OC)c5ccccc5)[nH]4)cc3)c(-c3ccccc3)c2)[nH]1)C(C)C [2(26)•2HCl, ((S)-1-{(S)-2-[5-(6′-Fluoro-4-{2-[(S)-1-((R)-2-methoxycarbonylamino-2-phenyl-acetyl)-pyrrolidin-2-yl]-3H-imidazol-4-yl}-[1,1′;2′,1″]terphenyl-4′-yl)-1H-imidazol-2-yl]-pyrrolidine-1-carbonyl}-2-methyl-propyl)-carbamic acid methyl ester dihydrochloride] | 14.3 | 30.3 | 7.9 | 3.1 | 3.2 | 14.5 | 39 |  | 9.2 | 9.8
COC(=O)N[C@H](C(=O)N1CCC[C@H]1c1ncc(-c2ccc(-c3ccc(-c4cnc([C@@H]5CCCN5C(=O)[C@H](NC(=O)OC)c5ccccc5)[nH]4)cc3)c(N(C)c3ccccc3)c2)[nH]1)C(C)C [2(25)•2HCl, [(S)-1-((S)-2-{5-[4′-{2-[(S)-1-((R)-2-Methoxycarbonylamino-2-phenyl-acetyl)-pyrrolidin-2-yl]-3H-imidazol-4-yl}-2-(methyl-phenyl-amino)-biphenyl-4-yl]-1H-imidazol-2-yl}-pyrrolidine-1-carbonyl)-2-methyl-propyl]-carbamic acid methyl ester trihydrochloride] | 43.2 | 345 | 13.9 | 5.5 | 1.72 | 11.5 | 18 | 24.2 |  | 
COC(=O)N[C@H](C(=O)N1CCC[C@H]1c1ncc(-c2cc(C)c(-c3ccc(-c4cnc([C@@H]5CCCN5C(=O)[C@H](NC(=O)OC)c5ccccc5)[nH]4)cc3)c(-c3ccccc3)c2)[nH]1)C(C)C [2(27)•2HCl, ((S)-1-{(S)-2-[5-(4-{2-[(S)-1-((R)-2-Methoxycarbonylamino-2-phenyl-acetyl)-pyrrolidin-2-yl]-3H-imidazol-4-yl}-6′-methyl-[1,1′;2′,1″]terphenyl-4′-yl)-1H-imidazol-2-yl]-pyrrolidine-1-carbonyl}-2-methyl-propyl)-carbamic acid methyl ester dihydrochloride] | 25.8 | 203 | 12.3 | 7.9 | 5.1 | 14.5 | 31 | 25.2 |  | 
COC(=O)N[C@H](C(=O)N1CCC[C@H]1c1ncc(-c2cc(F)c(C#CC#Cc3cnc([C@@H]4CCCN4C(=O)[C@H](NC(=O)OC)c4ccccc4)[nH]3)c(-c3ccccc3)c2)[nH]1)C(C)C [2(17)•2HCl, [(S)-1-((S)-2-{5-[5-Fluoro-6-(4-{2-[(S)-1-((R)-2-methoxycarbonylamino-2-phenyl-acetyl)-pyrrolidin-2-yl]-3H-imidazol-4-yl}-buta-1,3-diynyl)-biphenyl-3-yl]-1H-imidazol-2-yl}-pyrrolidine-1-carbonyl)-2-methyl-propyl]-carbamic acid methyl ester dihydrochloride] | 26 | 50.8 | 11.8 | 5 | 1.36 | 9.18 | 22 | 20.1 |  | 
COC(=O)N[C@H](C(=O)N1CCC[C@H]1c1ncc(-c2ccc(C#CC#Cc3cnc([C@@H]4CCCN4C(=O)[C@H](NC(=O)OC)c4ccccc4)[nH]3)c(Sc3ccccc3)c2)[nH]1)C(C)C [2(20)•2HCl, [(S)-1-((S)-2-{5-[4-(4-{2-[(S)-1-((R)-2-Methoxycarbonylamino-2-phenyl-acetyl)-pyrrolidin-2-yl]-3H-imidazol-4-yl}-buta-1,3-diynyl)-3-phenylsulfanyl-phenyl]-1H-imidazol-2-yl}-pyrrolidine-1-carbonyl)-2-methyl-propyl]-carbamic acid methyl ester dihydrochloride] |  |  |  |  | 1.7 | 9.02 | 43 |  |  | 
